From patent publication US20160122268A1, “PROCESS FOR SIMULTANEOUS EXTRACTION AND SEPARATION OF ESTERIFIED AND UNESTERIFIED MONOHYDROXYCAROTENOIDS” (UNIVERSITY OF MARYLAND, COLLEGE PARK, priority 2013, published 2016)

assay: Solubility in hydrocarbon solvents (pentane or hexane), observed in Soxhlet extraction; format: physicochemical; settings: boiling pentane or hexane
Source text: In an alternative process, Soxhlet extraction of mono- and dihydroxycarotenoids can also be carried out to separate these carotenoids. As mentioned earlier, esterified forms of lutein and zeaxanthin are well solubilized in hydrocarbon solvents such as n-hexane and n-pentane, whereas their unesterified parent compounds, […], show a remarkable difference in their solubility behavior and remain insoluble. In fact, […] are considerably more soluble in n-pentane or n-hexane than lutein and zeaxanthin.
Similarly, a mixture of zeaxanthin and β-cryptoxanthin can be separated by Soxhlet extraction with n-pentane or n-hexane due to their differential solubility in hydrocarbon solvents.
100 mg of 1:1 mixture of (3R)-β-cryptoxanthin (13) and (3R,3′R)-zeaxanthin (5) was subjected to Soxhlet extraction and these unesterified carotenoids were extracted with boiling pentane (b.p.=36° C.) or hexane (b.p.=69° C.). […] After 4 hours, the composition of the extract was: (3R)-β-cryptoxanthin (13) (85%) and (3R,3′R)-zeaxanthin (5) (15%). In a subsequent Soxhlet extraction with pentane or hexane, (3R)-β-cryptoxanthin (13) was obtained in 98% purity.

Compound	solubility in hydrocarbon solvents
CC1=C(/C=C/C(C)=C/C=C/C(C)=C/C=C/C=C(C)/C=C/C=C(C)/C=C/C2=C(C)C[C@@H](O)CC2(C)C)C(C)(C)C[C@H](O)C1 [compound 5, (3R,3′R)-zeaxanthin]	only sparingly soluble
CC(C=CC=C(C)C=CC1=C(C)CC(O)CC1(C)C)=CC=CC=C(C)C=CC=C(C)C=CC1C(C)=CCCC1(C)C [compound 9, (3R,6′R)-α-cryptoxanthin]	much greater solubility than lutein
CC1=C(/C=C/C(C)=C/C=C/C(C)=C/C=C/C=C(C)/C=C/C=C(C)/C=C/C2=C(C)C[C@@H](O)CC2(C)C)C(C)(C)CCC1 [compound 13, (3R)-β-cryptoxanthin]	significantly better solubility
